Results reported in PubChem BioAssay AID330 (DTP/NCI, 2004).
Where “and” joins values, the source holds several entries; their conditions need not be identical. Equal entries are not always repeated. Toxic doses and inconclusive results are not listed. The calls were made as follows: active = survival T/C of 150% or more; inactive = T/C below 125% in these data.

Test system: P388 leukemia ip, CD2F1 mice, survival T/C
Assay: NCI In Vivo Anticancer Drug Screen. Data for tumor model P388 Leukemia (intraperitoneal) in CD2F1 (CDF1) mice
Conditions: endpoint: median survival time, higher = longer survival
How it was run: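 Mice carrying the transplanted tumor received test compound or vehicle. Survival was recorded in each group, and the value is the treated-group measurement divided by that of the vehicle-treated control group.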

[1] = dose: 50.0 mg/kg/injection, schedule: Q01DX005 (ip), vehicle: saline with Tween-80
[2] = dose: 100.0 mg/kg/injection, schedule: Q01DX005 (ip), vehicle: saline with Tween-80
[3] = dose: 200.0 mg/kg/injection, schedule: Q01DX005 (ip), vehicle: saline with Tween-80
[4] = dose: 60.0 mg/kg/injection, schedule: Q01DX005 (ip), vehicle: saline
[5] = dose: 120.0 mg/kg/injection, schedule: Q01DX005 (ip), vehicle: saline
[6] = dose: 240.0 mg/kg/injection, schedule: Q01DX005 (ip), vehicle: saline
[7] = dose: 30.0 mg/kg/injection, schedule: Q01DX005 (ip), vehicle: saline
[8] = dose: 100.0 mg/kg/injection, schedule: Q01DX001 (ip), vehicle: saline with Tween-80
[9] = dose: 200.0 mg/kg/injection, schedule: Q01DX001 (ip), vehicle: saline with Tween-80
[10] = dose: 60.0 mg/kg/injection, schedule: Q01DX005 (ip), vehicle: saline with Tween-80
[11] = dose: 120.0 mg/kg/injection, schedule: Q01DX005 (ip), vehicle: saline with Tween-80
[12] = dose: 240.0 mg/kg/injection, schedule: Q01DX005 (ip), vehicle: saline with Tween-80
[13] = dose: 30.0 mg/kg/injection, schedule: Q01DX005 (ip), vehicle: saline with Tween-80
[14] = dose: 50.0 mg/kg/injection, schedule: Q01DX009 (ip), vehicle: saline with Tween-80
[15] = dose: 100.0 mg/kg/injection, schedule: Q01DX009 (ip), vehicle: saline with Tween-80
[16] = dose: 200.0 mg/kg/injection, schedule: Q01DX009 (ip), vehicle: saline with Tween-80
[17] = dose: 6.25 mg/kg/injection, schedule: Q01DX009 (ip), vehicle: saline with Tween-80

Measured: T/C

Cc1[nH]nc2c1NC(=O)OC2
inactive: [1] 104 % of control | [2] 104 % of control | [3] 106 % of control

CC(OC1OC(C(=O)O)C(O)C(O)C1O)c1ccccc1 (stereo not given)
inactive: dose: 200.0 mg/kg/injection, schedule: Q01DX009 (ip), vehicle: saline sonified 100 % of control | dose: 400.0 mg/kg/injection, schedule: Q01DX009 (ip), vehicle: saline sonified 95 % of control

Cc1cc(-c2cc(C)on2)no1
inactive: [4] 103 % of control | [5] 103 % of control | [6] 103 % of control

CN1CCN(C(=O)/C=C/C(=O)c2ccccc2)CC1
inactive: dose: 30.0 mg/kg/injection, schedule: Q01DX005 (ip), vehicle: Klucel (hydroxypropylcellulose) (HPC) 121 % of control | [7] 108 % of control | [4] 106 % of control and 109 % of control

O=[N+]([O-])/C=C\c1ccc(/C=C/[N+](=O)[O-])cc1
inactive: dose: 1.25 mg/kg/injection, schedule: Q01DX009 (ip), vehicle: saline 103 % of control and 107 % of control | dose: 1.25 mg/kg/injection, schedule: Q01DX009 (ip), vehicle: suspension in saline 103 % of control | dose: 2.5 mg/kg/injection, schedule: Q01DX009 (ip), vehicle: saline 100 % of control and 108 % of control | dose: 2.5 mg/kg/injection, schedule: Q01DX009 (ip), vehicle: suspension in saline 116 % of control | dose: 5.0 mg/kg/injection, schedule: Q01DX009 (ip), vehicle: saline 104 % of control and 107 % of control | dose: 5.0 mg/kg/injection, schedule: Q01DX009 (ip), vehicle: suspension in saline 114 % of control | dose: 10.0 mg/kg/injection, schedule: Q01DX009 (ip), vehicle: saline 106 % of control and 116 % of control | dose: 10.0 mg/kg/injection, schedule: Q01DX009 (ip), vehicle: suspension in saline 116 % of control

CCn1c2ccc([N+](=O)[O-])cc2c2c([N+](=O)[O-])c(NC(C)=O)ccc21
inactive: [1] 93 % of control | [2] 95 % of control | [3] 92 % of control

COc1ccc(NCc2ccc(C)cc2)cc1
inactive: [8] 100 % of control | [9] 108 % of control | dose: 400.0 mg/kg/injection, schedule: Q01DX001 (ip), vehicle: saline with Tween-80 107 % of control

Cc1cc(C)[n+](C)c2cc3ccccc3cc12
inactive: dose: 12.5 mg/kg/injection, schedule: Q01DX005 (ip), vehicle: saline with Tween-80 115 % of control | [1] 109 % of control

O=[N+]([O-])c1cc(CNCCO)c(O)c2ncccc12
inactive: [10] 91 % of control | [11] 93 % of control | [12] 110 % of control

CCOc1ccc2c(N=[N+]=[N-])cc(C)nc2c1
inactive: [13] 94 % of control | [10] 103 % of control and 91 % of control | [11] 92 % of control

C/C(=N/NC(=O)c1ccccc1)C(=NO)/C(C)=N\NC(=O)c1ccccc1
inactive: dose: 100.0 mg/kg/injection, schedule: Q01DX001 (ip), vehicle: saline 100 % of control | dose: 200.0 mg/kg/injection, schedule: Q01DX001 (ip), vehicle: saline 97 % of control | dose: 400.0 mg/kg/injection, schedule: Q01DX001 (ip), vehicle: saline 100 % of control

N#Cc1nc(CC(=O)/C=C/c2ccccc2)c(CC(=O)/C=C/c2ccccc2)nc1C#N
inactive: [4] 103 % of control | [5] 103 % of control | [6] 112 % of control

CC(C)CC(NC(=O)C(C)N)C(=O)OC(C)(C)C (stereo not given)
inactive: [1] 101 % of control | [2] 102 % of control | [3] 96 % of control

N#CSCc1ccccc1
inactive: dose: 3.13 mg/kg/injection, schedule: Q01DX009 (ip), vehicle: saline 100 % of control | dose: 6.25 mg/kg/injection, schedule: Q01DX009 (ip), vehicle: saline 105 % of control | dose: 12.5 mg/kg/injection, schedule: Q01DX009 (ip), vehicle: saline 104 % of control

CCC12COC3(C)CCC(C)(OC1)N23 (stereo not given)
inactive: dose: 50.0 mg/kg/injection, schedule: Q01DX005 (ip), vehicle: saline 100 % of control | [14] 91 % of control | dose: 100.0 mg/kg/injection, schedule: Q01DX005 (ip), vehicle: saline 100 % of control | [15] 91 % of control | dose: 200.0 mg/kg/injection, schedule: Q01DX005 (ip), vehicle: saline 103 % of control | [16] 98 % of control

CN(CCCN(C)N=Nc1ccccc1C(=O)O)N=Nc1ccccc1C(=O)O
inactive: [15] 86 % of control | [16] 90 % of control

O=C1NC2CC1C(O)C2O (stereo not given)
inactive: [4] 101 % of control | [5] 101 % of control | [6] 100 % of control

CCCSCC(C)C
inactive: [14] 100 % of control | [15] 100 % of control | [16] 109 % of control

CC1(C)CC(NC(=O)c2cc([N+](=O)[O-])c(S(=O)(=O)O)c([N+](=O)[O-])c2)CC(C)(C)N1O
inactive: dose: 100.0 mg/kg/injection, schedule: Q04DX002 (ip), vehicle: saline with Tween-80 110 % of control | dose: 200.0 mg/kg/injection, schedule: Q04DX002 (ip), vehicle: saline with Tween-80 100 % of control | dose: 400.0 mg/kg/injection, schedule: Q04DX002 (ip), vehicle: saline with Tween-80 107 % of control

O=C(Nc1cccc2c(NC(=O)N3CCCCC3)cccc12)N1CCCCC1
inactive: dose: 15.0 mg/kg/injection, schedule: Q01DX005 (ip), vehicle: saline with Tween-80 94 % of control | [13] 93 % of control | [11] 86 % of control | [12] 100 % of control

O=C1NNC(=O)C2(CCC(O)C2)c2ccncc21 (stereo not given)
inactive: dose: 3.75 mg/kg/injection, schedule: Q01DX005 (ip), vehicle: saline 105 % of control | dose: 7.5 mg/kg/injection, schedule: Q01DX005 (ip), vehicle: saline 92 % of control | dose: 15.0 mg/kg/injection, schedule: Q01DX005 (ip), vehicle: saline 96 % of control | [7] 105 % of control

COCc1ccc(C(N)C(=O)O)cc1 (stereo not given)
inactive: [8] 92 % of control | [9] 108 % of control

C/C(=N/OC1=CC(=O)CC(C)(C)C1)c1ccccc1
inactive: [1] 104 % of control | [2] 104 % of control | [3] 99 % of control

O=C(Nc1cccc(Cl)c1)OCCN1CCNC1=S
inactive: dose: 50.0 mg/kg/injection, schedule: Q01DX009 (ip), vehicle: Klucel (hydroxypropylcellulose) (HPC) 116 % of control | dose: 100.0 mg/kg/injection, schedule: Q01DX009 (ip), vehicle: Klucel (hydroxypropylcellulose) (HPC) 106 % of control | dose: 200.0 mg/kg/injection, schedule: Q01DX009 (ip), vehicle: Klucel (hydroxypropylcellulose) (HPC) 105 % of control

COc1ccc(C2CCc3cc4c(cc3C2=O)OCO4)cc1OC (stereo not given)
inactive: dose: 200.0 mg/kg/injection, schedule: Q04DX003 (ip), vehicle: saline with Tween-80 90 % of control

Nc1ccc(-c2cc(O)ccc2N)cc1
inactive: dose: 25.0 mg/kg/injection, schedule: Q01DX009 (ip), vehicle: saline with Tween-80 100 % of control | [14] 117 % of control | [15] 110 % of control

CCOC(=O)CCC(=O)Nc1ccccc1C#N
inactive: dose: 50.0 mg/kg/injection, schedule: Q01DX009 (ip), vehicle: saline 102 % of control | dose: 100.0 mg/kg/injection, schedule: Q01DX009 (ip), vehicle: saline 93 % of control | dose: 200.0 mg/kg/injection, schedule: Q01DX009 (ip), vehicle: saline 102 % of control

CN(c1ccccc1)P(C)(Cl)(c1ccccc1)c1ccccc1
inactive: dose: 1.56 mg/kg/injection, schedule: Q01DX009 (ip), vehicle: saline with Tween-80 101 % of control | dose: 3.13 mg/kg/injection, schedule: Q01DX009 (ip), vehicle: saline with Tween-80 109 % of control | [17] 118 % of control

O=[N+]([O-])c1ccccc1NN=NCCCl
inactive: dose: 3.12 mg/kg/injection, schedule: Q01DX005 (ip), vehicle: Klucel (hydroxypropylcellulose) (HPC) 112 % of control | dose: 6.25 mg/kg/injection, schedule: Q01DX005 (ip), vehicle: Klucel (hydroxypropylcellulose) (HPC) 120 % of control | dose: 25.0 mg/kg/injection, schedule: Q01DX005 (ip), vehicle: Klucel (hydroxypropylcellulose) (HPC) 120 % of control

Brc1ccc(-c2csc(Nc3nc(-c4ccc(Br)cc4)cs3)n2)cc1
inactive: [15] 95 % of control | [16] 100 % of control | dose: 400.0 mg/kg/injection, schedule: Q01DX009 (ip), vehicle: saline with Tween-80 104 % of control

Nc1ccc(C(OC(=O)c2cc3ccccc3c(Cc3c(O)c(C(=O)OC(c4ccc(N)cc4)(c4ccc(N)cc4)c4ccc(N)cc4)cc4ccccc34)c2O)(c2ccc(N)cc2)c2ccc(N)cc2)cc1
inactive: [17] 117 % of control
